Measured values as given in ChEMBL document CHEMBL1127154, “Azido-functionalized thiourea analogues acting as efficient photoaffinity probes for the urea channel” (1993).

Assays:
frog [1] = assay: Concentration in urinary bladder of female frog.; assay type: functional, tissue-based
[2] = Compound was tested for its ability to inhibit the urea facilitated transport in the urinary bladder of female frog, activity expressed as percent inhibition.; assay type: functional
[3] = Compound was tested for its ability to inhibit the urea facilitated transport in the urinary bladder of female frog after illumination, activity expressed as irreversibility of illumination.; assay type: functional
frog [4] = assay: Concentration in urinary bladder of female frog; very low solubility; assay type: functional, tissue-based

[N-]=[N+]=Nc1ccc(/N=C(/N)S)cc1
Concentration (frog [1]): 500 µM
Inhibition [2]: 25%
Irreversibility [3]: 100%

C/N=C(\S)Nc1ccc(Cl)c(N=[N+]=[N-])c1
Concentration (frog [1]): 31.6 µM
Inhibition [2]: 50%
Irreversibility [3]: 100%

C/N=C(\S)Nc1nc2cc(N=[N+]=[N-])ccc2[nH]1
Concentration (frog [1]): 500 µM
Inhibition [2]: 29%
Irreversibility [3]: 100%

[N-]=[N+]=Nc1ccc(NC(=S)Nc2ccc(Cl)c(Cl)c2)cc1
Concentration (frog [4]): very low solubility

[N-]=[N+]=Nc1cc(/N=C(/N)S)ccc1Cl
Concentration (frog [1]): 60.3 µM
Inhibition [2]: 50%
Irreversibility [3]: 100%
